This is an account of results in patent US7208524B2, “5-amidino-2-hydroxybenzenesulfonamide derivatives, pharmaceutical compositions containing the same and intermediates for their preparation” (Kissei Pharmaceutical Co., Ltd., priority 2000, dated 2007).

As usually defined, the IC50 is the midpoint of a concentration-inhibition curve.

Some results are limits rather than exact numbers.

Series [1] has as its target T1, human thrombin (Homo sapiens, UniProt P00734).
T1 construct: human thrombin (Sigma Chemical Company); purchased Sigma Chemical Company
The series is described as follows: Measurement of inhibitory activity for thrombin (S-2238 chromogenic substrate). The series is classed as biochemical. The following applies: S-2238, 10 minutes at 37° C., pH 8.4. On the procedure: 2.5 μL of a dimethylsulfoxide solution of a test compound, 187.5 μL of 100 mM tris-200 mM NaCl buffer (pH 8.4) and 50 μL of 1 mM S-2238 (Daiichi Pure Chemicals) aqueous solution were poured into 96 well microplate. Then 10 μL of 2.0 U/mL human thrombin (Sigma Chemical Company) in gelatin-glycine buffer was added and the mixture was incubated for 10 minutes at 37° C. The reaction was terminated with the addition of 50 μL of 60% acetic acid and absorbance (405 nm) was measured by a microplate reader (SPECTRAmax 250, Molecular Devices).
The group with 2.5 μL of the dimethylsulfoxide solution instead of the test compound solution was defined as the control, and the group with 10 μL of the gelatin-glycine buffer solution instead of human thrombin was defined as the blank. The concentration of a test compound that inhibited the absorbance of control by 50% (IC50) was obtained, and this value was used as the index of inhibitory activity for thrombin.

Series [2] concerns normal human plasma. As to the kind of experiment: Measurement of anticoagulation effects (prolongation of plasma prothrombin time). On the procedure: Two μL of a dimethylsulfoxide solution of a test compound was put in the process tube and then incubated at 37° C. One minute after addition of 48 μL of normal human plasma (George King Bio-Medical Inc), 100 μL of plasma prothrombin time reagent (Boehringer Mannheim) prewarmed at 37° C. was added into the mixture. Prothrombin time was measured with a coagulometer (ST4, Boehringer Mannheim).
The group without any test compound was defined as the control. The concentration of test compound that prolonged the clotting time of the control by 2 times (CT2) was obtained and, this value was used as the index of anticoagulation activity.

Series [3] addresses T2, human activated blood coagulation factor X (Homo sapiens, UniProt P00742).
T2 construct: purchased Calbiochem
The series is described as follows: Measurement of inhibitory activity for activated blood coagulation factor X (S-2222 chromogenic substrate). The series is classed as biochemical. The settings on record: S-2222, 10 minutes at 37° C., pH 8.4. The method, then:
2.5 μL of a dimethylsulfoxide solution of a test compound, 187.5 μL of 100 mM tris-200 mM NaCl buffer (pH 8.4) and 50 μL of 1 mM S-2222 (Daiichi Pure Chemicals) aqueous solution were poured into 96 well microplate. Then 10 μL of 0.6 U/mL human activated blood coagulation factor X (Calbiochem) in gelatin-glycine buffer was added and the mixture was incubated for 10 minutes at 37° C. The reaction was terminated with the addition of 50 μL of 60% acetic acid and absorbance (405 nm) was measured by a microplate reader (SPECTRAmax 250, Molecular Devices).
The group with 2.5 μL of the dimethylsulfoxide solution instead of the test compound solution was defined as the control, and the group with 10 μL of the gelatin-glycine buffer solution instead of human activated blood coagulation factor X was defined as the blank.
Target sequence in this assay (P00742 235-488 limits assumed): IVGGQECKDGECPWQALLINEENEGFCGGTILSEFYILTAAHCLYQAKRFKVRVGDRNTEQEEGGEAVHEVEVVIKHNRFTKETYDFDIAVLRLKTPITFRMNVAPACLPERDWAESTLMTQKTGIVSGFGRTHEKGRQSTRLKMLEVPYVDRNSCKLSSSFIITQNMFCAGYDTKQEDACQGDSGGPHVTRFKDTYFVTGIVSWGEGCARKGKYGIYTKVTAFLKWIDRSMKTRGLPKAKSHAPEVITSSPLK
Target sequence in this assay (P00742 41-179 partner limits assumed): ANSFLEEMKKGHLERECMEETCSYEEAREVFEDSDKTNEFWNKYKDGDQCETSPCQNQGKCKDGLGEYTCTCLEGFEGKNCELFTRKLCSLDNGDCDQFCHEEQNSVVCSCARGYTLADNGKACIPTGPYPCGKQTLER

Series [4] deals with Male ICR mice. As to the kind of experiment: Acute toxicity test. The following applies: 50.0 mg/10.0 mL/kg into tail vein, survival judged for 24 hours, groups of 5. The format is in vivo. On the procedure:
Male ICR mice aged 7 weeks (SLC) were divided into several groups consisted of 5 mice. A solution containing a test compound was prepared at the concentration that became the administration volume of the test compound to be 50.0 mg/10.0 mL/kg. The solution was administered into tail vein at an infusion rate of 1 mL/minute. Observations were performed at constant interval, and survival rate was judged for 24 hours. Results were shown as Table 5, and no death case was observed.

Series [5] deals with T2, human activated blood coagulation factor X. The series is described as follows: Oral administration test in rats: anti-activated blood coagulation factor X activity in plasma. The format is in vivo, rat. The following applies: male Wistar rats, 30 minutes after oral administration, 30 mg/kg; plasma tested against human factor Xa. The method, then:
(§1) Male Wistar rats aged 6–9 weeks (SLC) fasted overnight were used. A test compound was dissolved or suspended in 0.5% methylcellulose solution at the concentration of 6.0 mg/mL. Then 5.0 mL/kg of that was orally administrated into the rats. Before and at proper time points after administration of the test compound, citrated (1:10 dilution, 3.13% sodium citrate) blood was collected from the jugular vein. Plasma samples were obtained by centrifugation.
2.5 μL of plasma sample, 200 μL of 100 mM tris-200 mM NaCl buffer (pH 8.4) and 10 μL of 0.06 U/mL human activated blood coagulation factor X (Calbiochem) in gelatin-glycine buffer were poured into 96 well microplate. Then 50 μL of 1 mM S-2222 (Daiichi Pure Chemicals) aqueous solution was added and the mixture was incubated for 10 minutes at room temperature. The reaction was terminated with the addition of 50 μL of 60% acetic acid and absorbance (405 nm) was measured by a microplate reader (SPECTRAmax 250, Molecular Devices).
The group with 2.5 μL of the control plasma instead of the plasma sample was defined as the control, and the group with 10 μL of gelatin-glycine buffer solution instead of human activated blood coagulation factor X was defined as the blank. The inhibitory % of plasma sample was calculated from absorbance of the control as 100% and this value was used as the index of anti-activated blood coagulation factor X activity in plasma.
(§2) 4) Results of anti-activated blood coagulation factor X activity in plasma and PT ratio at 30 minutes after oral administration of each test compound at a dose of 30 mg/kg were shown as Table 4.
Target sequence in this assay (P00742 235-488 limits assumed): as the sequence (P00742 235-488 limits assumed) above
Target sequence in this assay (P00742 41-179 limits assumed): as the sequence (P00742 41-179 partner limits assumed) above

Series [6] concerns plasma prothrombin time. As to the kind of experiment: Oral administration test in rats: prothrombin time (PT) of plasma. The series is classed as in vivo, rat. The following applies: male Wistar rats, 30 minutes after oral administration, 30 mg/kg; PT after administration to that before. On the procedure: as §1
Fifty μL of plasma was put in the process tube and then incubated at 37° C. One minute later, 100 μL of plasma PT reagent (Boehringer Mannheim) prewarmed at 37° C. was added into the mixture. PT was measured with a coagulometer (ST4, Boehringer Mannheim).
The ratio of PT at each time point after administration of the test compound to that of before administration was used as the index of anticoagulation activity.
as §2

In the case of `CS(=O)(=O)c1ccccc1-c1ccc(CCNS(=O)(=O)c2cc(C(=N)N)ccc2O)c(OCC(=O)O)c1.Cl` [Compound 33, [4-[2-(5-Carbamimidoyl-2-hydroxybenzenesulfonylamino)-ethyl]-2′-methanesulfonoylbiphenyl-3-yloxy]acetic acid hydrochloride], the IC50 in series [1] is greater than 100000 nM. Besides, the “Anticoagulation activity (μM): concentration that prolonged the clotting time of the control by 2 times (CT2)” value in series [2] came to 0.52 µM.

Turning to `CC(C)c1ccc(CCNS(=O)(=O)c2cc(C(=N)N)ccc2O)c(OCC(=O)O)c1` [Compound 42, [2-[2-(5-Carbamimidoyl-2-hydroxybenzenesulfonylamino)-ethyl]-5-isopropylphenoxy]acetic acid], the IC50 in series [3] was 100 nM; in series [1], greater than 100000 nM. The “Anticoagulation activity (μM): concentration that prolonged the clotting time of the control by 2 times (CT2)” value in series [2] worked out at 2.4 µM. Also, the Death case in series [4] is reported as 0/5.

As for `CCOC(=O)COc1cc(-c2ccccc2S(C)(=O)=O)ccc1CCNS(=O)(=O)c1cc(C(=N)NO)ccc1O` [Compound 43, Ethyl[4-[2-[2-hydroxy-5-(N-hydroxycarbamimidoyl)-benzenesulfonylamino]ethyl]-2′-mthanesulfonylbiphenyl-3-yloxy]acetate], the “Anti-activated blood coagulation factor X activity in plasma (%)” value in series [5] was 32.0%. For the same molecule, in series [6], the PT ratio is on record as 1.31.

In the case of `CCCCOC(=O)COc1cc(-c2ccccc2S(C)(=O)=O)ccc1CCNS(=O)(=O)c1cc(C(=N)NO)ccc1O.Cl` [Compound 48, n-Butyl[4-[2-[2-Hydroxy-5-(N-hydroxycarbamimidoyl)-benzenesulfonylamino]ethyl]-2′-methanesulfonylbiphenyl-3-yloxy]acetate hydrochloride], the “Anti-activated blood coagulation factor X activity in plasma (%)” value in series [5] is on record as 58.2%. For the same molecule, the PT ratio in series [6] turned out to be 1.50.

Regarding `CS(=O)(=O)c1ccccc1-c1ccc(CCNS(=O)(=O)c2cc(C(=N)NO)ccc2O)c(OCC(=O)OC2CCCCC2)c1` [Compound 49, Cyclohexyl[4-[2-[2-hydroxy-5-(N-hydroxycarbamimidoyl)-benzenesulfonylamino]ethyl]-2′-methanesulfonylbiphenyl-3-yloxy]acetate], in series [5], the “Anti-activated blood coagulation factor X activity in plasma (%)” value worked out at 51.4%. Further, the PT ratio in series [6] amounted to 1.43.

Take `CC(C)c1ccc(CCNS(=O)(=O)c2cc(C(=N)N)ccc2O)c(S(N)(=O)=O)c1` [Compound 52, 5-Carbamimidoyl-2-hydroxy-N-[2-(4-isopropyl-2-sulfamoylphenyl)ethyl]benzenesulfonamide]: the IC50 in series [3] was 16 nM; in series [1] it was greater than 100000 nM.

On to `Cc1nc(CN(CCc2ccc(C(C)C)cc2OCC(=O)O)S(=O)(=O)c2cc(C(=N)N)ccc2O)cs1` [Compound 53, [2-[2-[(5-Carbamimidoyl-2-hydroxybenzenesulfonyl)-(2-methyl-1,3-thiazol-4-ylmethyl)amino]ethyl]-5-isopropylphenoxy]acetic acid], for which the half-inhibitory concentration (IC50) in series [3] was 51 nM; in series [1], greater than 100000 nM.
